Where two headings read alike, the source gives them in different places.
Key:
human CB1 receptor [1] = target: T1, human CB1 receptor (Homo sapiens, UniProt P21554); assay: [35S] GTPγS binding on membranes of CHO cells expressing the human CB1 receptor (agonism); assay type: biochemical; set-up: expressed in transfected cells; membrane preparation
How it was run: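 Membranes from human CB1-expressing CHO cells (5 μg/well) incubated with test compound and [35S]GTPγS in 50 mM Tris pH 7.4, 100 mM NaCl, 3 mM MgCl2, 0.2 mM EGTA, 0.04% BSA for 45 min at 37 °C. Bound label collected by filtration, scintillation counted; EC50 from curve fits.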

human CB1 receptor [2] = target: T1, human CB1 receptor; assay: Human CB1 receptor binding, [3H] CP-55,940 displacement on HEK cell membranes; set-up: expressed in transfected cells; host or cells: HEK cells, doxycycline-induced; membrane preparation
How it was run: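 Membranes from doxycycline-induced HEK cells expressing human CB1 incubated 60 min at room temperature with [3H] CP-55,940 (final […]) in 50 mM Tris pH 7.4, 100 mM NaCl, 3 mM MgCl2, 0.2 mM EGTA, 0.04% BSA. Nonspecific binding defined with 50 μM WIN-55,212-2; filtration and scintillation counting gave EC50 and Ki.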

[3] = human CB1, CHO cell membranes, read-out: GTPγS EC50
[4] = GTPγS EC50, human CB1, CHO cell membranes

T1 sequence (P21554 whole entry): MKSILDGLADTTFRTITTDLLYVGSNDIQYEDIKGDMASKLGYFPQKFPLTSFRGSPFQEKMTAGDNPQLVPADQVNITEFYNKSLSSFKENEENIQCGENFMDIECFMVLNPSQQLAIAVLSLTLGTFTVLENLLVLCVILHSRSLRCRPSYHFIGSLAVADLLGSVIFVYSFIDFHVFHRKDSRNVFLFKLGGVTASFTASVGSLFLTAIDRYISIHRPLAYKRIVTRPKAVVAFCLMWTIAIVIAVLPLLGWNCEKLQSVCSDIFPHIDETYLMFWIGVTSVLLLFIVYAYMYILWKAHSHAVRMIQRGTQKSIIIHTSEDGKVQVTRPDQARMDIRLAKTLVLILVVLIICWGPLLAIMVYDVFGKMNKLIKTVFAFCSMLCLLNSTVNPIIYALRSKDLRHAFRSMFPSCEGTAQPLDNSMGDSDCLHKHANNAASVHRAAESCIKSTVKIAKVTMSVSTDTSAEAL

| Compound | EC50 (human CB1 receptor [1]; [3]) [nM] | Ki (human CB1 receptor [2]; read-out: CB1 Ki) [nM] | EC50 (human CB1 receptor [1]; [4]) [nM] | Ki (human CB1 receptor [2]; CB1 Ki) [nM] |
| --- | --- | --- | --- | --- |
| CC(C)(C)C(NC(=O)c1nn(Cc2ccc(C#N)cc2)c2ccccc12)C(=O)NCc1nnc(C(N)=O)o1 (centres unmarked) [Example 130] | 72.7 | 14.7 |  |  |
| CC(C)(C)[C@H](NC(=O)c1nn(Cc2ccc(F)cc2)c2ccccc12)C(=O)N1CCC(CO)CC1 [Example 223] |  |  | 4.76 | 1.12 |
| CC(C)(C)C(NC(=O)c1nn(Cc2ccc(F)cc2)c2ccccc12)C(=O)NCCO (centres unmarked) [Example 81] |  |  | 0.98 | 0.32 |
| Cc1cc(NC(=O)[C@@H](NC(=O)c2nn(Cc3ccc(F)cc3)c3ccccc23)C(C)(C)C)sn1 [Example 514] |  |  | 33.3 | 3.03 |
| CC(C)(C)C(NC(=O)c1nn(Cc2ccccc2)c2ccccc12)C(N)=O (centres unmarked) [Example 27] |  |  | 14.7 | 0.33 |
| CC(C)(C)[C@H](NC(=O)c1nn(Cc2ccc(F)cc2)c2ccccc12)C(=O)NCC(=O)Nc1cnoc1 [Example 518] | 13.6 | 1.8 |  |  |
| CC(C)(C)[C@H](NC(=O)c1nn(Cc2ccc(F)cc2)c2ccccc12)C(=O)NC[C@H]1CCCC[C@@H]1O [Example 253] | 26 | 4.5 |  |  |
| COC(=O)[C@@H](NC(=O)c1nn(Cc2ccccc2)c2ccccc12)C(C)(C)C [Example 38] |  |  | 2.42 | 0.14 |
| CC(C)(C)C(NC(=O)c1nn(Cc2ccccc2)c2ccccc12)C(=O)NCCNS(=O)(=O)C1CC1 (centres unmarked) [Example 96] | 16.9 | 1.18 |  |  |
| Cc1nc(CNC(=O)[C@@H](NC(=O)c2nn(Cc3ccc(F)cc3)c3ccccc23)C(C)(C)C)nn1C [Example 421] | 17.2 | 2.88 |  |  |
| Cc1cc2c(C(=O)N[C@H](C(=O)NC[C@H](O)CO)C(C)(C)C)nn(Cc3ccc(F)cc3)c2cc1F [Example 510] |  |  | 24.8 | 6.87 |
| Cc1cc2c(C(=O)N[C@H](C(=O)NCc3nnc(C(N)=O)o3)C(C)(C)C)nn(Cc3ccc(F)cc3)c2cc1F [Example 508] | 16.2 | 2.71 |  |  |
| CC(C)(C)[C@H](NC(=O)c1nn(Cc2ccc(F)cc2)c2ccccc12)C(=O)NCC#N [Example 270] |  |  | 2.62 | 0.76 |
| CC(C)(C)C(NC(=O)c1nn(Cc2ccc(F)cc2)c2ccccc12)C(=O)NCc1noc(C(N)=O)n1 (centres unmarked) [Example 137] | 1.69 | 0.69 |  |  |
| CC(C)(C)[C@H](NC(=O)c1nn(Cc2ccc(F)cc2)c2ccccc12)C(=O)N1CCC(F)(F)C1 [Example 331] |  |  | 9.9 | 2.2 |
| CC(C)(C)[C@H](NC(=O)c1nn(Cc2ccc(F)cc2)c2c(F)cccc12)C(=O)NCCC(N)=O [Example 476] |  |  | 31.4 | 6.48 |
| CC(C)(C)[C@H](NC(=O)c1nn(Cc2ccc(F)cc2)c2ccccc12)C(=O)NC[C@@H](O)[C@H](O)CO [Example 516] |  |  | 44.6 | 4.28 |
| CC(C)(C)[C@H](NC(=O)c1nn(Cc2ccc(F)cc2)c2c(Cl)cccc12)C(=O)NCCNS(=O)(=O)C1CC1 [Example 187] | 1.09 | 0.09 |  |  |
| CC(C)(C)[C@H](NC(=O)c1nn(Cc2ccc(F)cc2)c2c(F)c(F)ccc12)C(=O)NCCO [Example 324] |  |  | 2.6 | 0.15 |
| CC(C)(C)[C@H](NC(=O)c1nn(Cc2ccc(C#N)cc2)c2c(F)cccc12)C(N)=O [Example 111] |  |  | 9.73 | 0.72 |
| CC(C)(C)[C@H](NC(=O)c1nn(Cc2ccc(F)cc2)c2ccccc12)C(=O)NCCc1cnccn1 [Example 482] | 22.2 | 12.1 |  |  |
| CC(C)(C)[C@H](NC(=O)c1nn(Cc2ccc(F)cc2)c2ccccc12)C(=O)NCC1CCC(=O)N1 (some centres unmarked) [Example 404] |  |  | 38.2 | 13.1 |
| CC(C)(C)C(NC(=O)c1nn(Cc2ccc(C#N)cc2F)c2ccccc12)C(=O)NCC(N)=O (centres unmarked) [Example 92] |  |  | 265 | 14.1 |

| Compound | EC50 (human CB1 receptor [1]; [3]) [nM] | Ki (human CB1 receptor [2]; read-out: CB1 Ki) [nM] | EC50 (human CB1 receptor [1]; [4]) [nM] | Ki (human CB1 receptor [2]; CB1 Ki) [nM] |
| --- | --- | --- | --- | --- |
| CC(C)(C)[C@H](NC(=O)c1nn(Cc2ccc(C#N)cc2)c2c(F)cccc12)C(=O)NCCNS(=O)(=O)C1CC1 [Example 115] | 8.72 | 1.09 |  |  |
| CC(C)(C)[C@H](NC(=O)c1nn(Cc2ccc(F)cc2)c2c(F)c(F)ccc12)C(=O)NCc1nnc(C(N)=O)o1 [Example 328] | 1.7 | 0.71 |  |  |
| CC(C)(C)[C@H](NC(=O)c1nn(Cc2ccc(F)cc2)c2ccccc12)C(=O)N1CCN(CC(N)=O)CC1 [Example 262] | 38.9 | 8.25 |  |  |
| CC(C)(C)[C@H](NC(=O)c1nn(Cc2ccc(F)cc2)c2ccccc12)C(=O)NCc1cc(C2CCC2)[nH]n1 [Example 420] | 43.7 | 11.2 |  |  |
| CC(C)(C)C(NC(=O)c1nn(Cc2ccc(C#N)cc2F)c2ccccc12)C(=O)NCCO (centres unmarked) [Example 91] |  |  | 53.8 | 1.87 |
| CC(C)(C)[C@H](NC(=O)c1nn(Cc2ccc(C#N)cc2)c2ccccc12)C(=O)NCC(F)(F)F [Example 308] |  |  | 5.55 | 2.63 |
| CC(C)(C)[C@H](NC(=O)c1nn(Cc2ccc(F)cc2)c2ccccc12)C(=O)N1CCC[C@H]1CO [Example 306] |  |  | 1.39 | 0.78 |
| CC(C)(C)[C@H](NC(=O)c1nn(Cc2ccc(F)cc2)c2ccccc12)C(=O)NCC(=O)NCCO [Example 376] |  |  | 4.4 | 1.52 |
| CC(C)(C)[C@H](NC(=O)c1nn(Cc2ccc(F)cc2)c2ccccc12)C(=O)NCc1n[nH]c(-c2ccccc2)n1 [Example 414] | 38.6 | 7.61 |  |  |
| CC(C)(C)[C@H](NC(=O)c1nn(Cc2ccc(C#N)cc2)c2c(F)cccc12)C(=O)N1Cc2ccccc2C1 [Example 213] | 57.7 | 15.7 |  |  |
| CC(C)(C)C(NC(=O)c1nn(Cc2ccc(F)cc2)c2c(F)cccc12)C(=O)NCCCO (centres unmarked) [Example 178] |  |  | 1.61 | 0.56 |
| Cn1nc(CNC(=O)[C@@H](NC(=O)c2nn(Cc3ccc(F)cc3)c3ccccc23)C(C)(C)C)cc1C1CCC1 [Example 416] | 47.1 | 9.26 |  |  |
| CC(C)C(NC(=O)c1nn(Cc2ccccc2F)c2ccccc12)C(N)=O (centres unmarked) [Example 17] |  |  | 149 | 4.69 |
| CC(C)(C)[C@H](NC(=O)c1nn(Cc2ccc(C#N)cc2)c2c(F)cccc12)C(=O)N[C@@H]1CCc2ccccc21 [Example 286] | 36.1 | 5.74 |  |  |
| CC(C)(C)C(NC(=O)c1nn(Cc2ccc(F)cc2)c2c(Cl)cccc12)C(=O)NCCCO (centres unmarked) [Example 184] |  |  | 3.94 | 0.37 |
| CC(C)(C)C(NC(=O)c1nn(Cc2ccc(F)cc2)c2ccccc12)C(=O)NCC(O)CO (centres unmarked) [Example 79] |  |  | 27.1 | 2.02 |
| CC(C)(C)[C@H](NC(=O)c1nn(Cc2ccc(F)cc2)c2ccccc12)C(=O)NCCC(N)=O [Example 470] |  |  | 33.7 | 11.2 |
| CC(C)(C)[C@H](NC(=O)c1nn(Cc2ccc(F)cc2)c2ccccc12)C(=O)NCCOc1ccnc(N)n1 [Example 479] | 131 | 13.4 |  |  |
| CC(C)(C)[C@H](NC(=O)c1nn(Cc2ccc(C#N)cc2)c2ccccc12)C(=O)NC1CC1 [Example 65] |  |  | 90 | 3.85 |
| Cc1nnc(CNC(=O)[C@@H](NC(=O)c2nn(Cc3ccc(C#N)cc3)c3ccccc23)C(C)(C)C)o1 [Example 127] |  |  | 136 | 32.8 |
| CC(=O)N1CCC(NC(=O)[C@@H](NC(=O)c2nn(Cc3ccc(F)cc3)c3ccccc23)C(C)(C)C)C1 (some centres unmarked) [Example 320] | 63.2 | 12 |  |  |
| CC(C)(C)[C@H](NC(=O)c1nn(Cc2ccc(C#N)cc2)c2c(F)cccc12)C(=O)NCc1nnc(C(N)=O)o1 [Example 116] | 49.6 | 13.5 |  |  |
| CC(C)(C)C(NC(=O)c1nn(Cc2ccc(F)cc2)c2ccccc12)C(=O)N1CCC(O)CC1 (centres unmarked) [Example 133] |  |  | 6.35 | 0.55 |

Reference: patent US20110028447A1, “INDAZOLE DERIVATIVES” (Pfizer Inc., priority 2008, published 2011)
